# Molecular target: T1, Rec. human COMT (Homo sapiens, UniProt P21964)
# T1 sequence (P21964 1-271): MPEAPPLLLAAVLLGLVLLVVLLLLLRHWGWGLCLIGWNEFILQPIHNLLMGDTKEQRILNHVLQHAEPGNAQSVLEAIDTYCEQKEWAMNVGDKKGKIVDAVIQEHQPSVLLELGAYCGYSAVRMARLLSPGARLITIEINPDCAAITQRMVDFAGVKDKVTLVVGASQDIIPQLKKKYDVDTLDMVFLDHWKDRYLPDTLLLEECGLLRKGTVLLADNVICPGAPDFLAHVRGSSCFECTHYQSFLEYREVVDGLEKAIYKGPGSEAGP
# Assay: COMT-Fluorescence Assay
# Assay type: biochemical
# Details: COMT-fluorescence assay, rec. human COMT 25 nM, 4-Nitrocatechol-Alexa488 200 nM, SAM 500 nM; read-out: IC50
# Protocol: This intramolecular interaction is disturbed if the 4-Nitrocatechol is methylated. […] This increase of fluorescence intensity can be followed in a kinetic measurement. The slope in the linear range of the kinetic is calculated. An inhibitor compound decreases the slope.
# Signal [rfu/min]=(rfu(end-point)−rfu(startpoint))/incubation_time_#2
row,SMILES,IC50 [nM]
1,"CS(=O)(=O)CCc1ccccc1-c1cc(O)c2nc[nH]c(=O)c2c1 [Example 116, 8-Hydroxy-6-(2-(2-(methylsulfonyl)ethyl)phenyl)quinazolin-4(3H)-one 2,2,2-trifluoroacetate]",180
2,"O=c1[nH]cnc2c(O)cc(Br)c(Cl)c12 [Example 117, 6-Bromo-5-chloro-8-hydroxyquinazolin-4(3H)-one]",40
3,"O=c1[nH]cnc2c(O)cc(-c3ccccc3COCCC3CCN(CC(F)(F)F)CC3)cc12 [Example 118, 8-Hydroxy-6-(2-((2-(1-(2,2,2-trifluoroethyl)piperidin-4-yl)ethoxy)methyl)phenyl)quinazolin-4(3H)-one 2,2,2-trifluoroacetate]",10
4,"CS(=O)(=O)Cc1ccccc1-c1cc(O)c2nc[nH]c(=O)c2c1Cl [Example 119, 5-Chloro-8-hydroxy-6-(2-(methylsulfonylmethyl)phenyl)quinazolin-4(3H)-one]",610
5,"O=c1[nH]cnc2c(O)cc(-c3ccccc3COCCC3CCN(CC(F)(F)F)CC3)c(Cl)c12 [Example 120, 5-Chloro-8-hydroxy-6-(2-((2-(1-(2,2,2-trifluoroethyl)piperidin-4-yl)ethoxy)methyl)phenyl)quinazolin-4(3H)-one 2,2,2-trifluoroacetate]",90
6,"O=c1[nH]cnc2c(O)cc(-c3ccccc3COCCN3CCN(CC(F)(F)F)CC3)cc12 [Example 121, 8-Hydroxy-6-(2-((2-(4-(2,2,2-trifluoroethyl)piperazin-1-yl)ethoxy)methyl)phenyl)quinazolin-4(3H)-one 2,2,2-trifluoroacetate]",30
7,"O=c1[nH]cnc2c(O)cc(-c3ccc(F)cc3)c(Br)c12 [Example 122, 5-Bromo-6-(4-fluorophenyl)-8-hydroxyquinazolin-4(3H)-one]",10
8,"O=c1[nH]cnc2c(O)c(F)c(-c3ccc(F)cc3)c(-c3ccc(F)cc3)c12 [Example 123, 7-Fluoro-5,6-bis(4-fluorophenyl)-8-hydroxyquinazolin-4(3H)-one]",10
9,"O=c1[nH]cnc2c(O)c(F)cc(-c3ccc(F)cc3)c12 [Example 124, 7-Fluoro-5-(4-fluorophenyl)-8-hydroxyquinazolin-4(3H)-one]",200
10,"O=c1[nH]cnc2c(O)cc(-c3ccc(F)cc3)cc12 [Example 125, 6-(4-Fluorophenyl)-8-hydroxyquinazolin-4(3H)-one]",20
11,"O=c1[nH]cnc2c(O)cc(Br)cc12 [Example 126, 6-Bromo-8-hydroxyquinazolin-4(3H)-one]",140
12,"Cc1cc(F)ccc1-c1cc(O)c2nc[nH]c(=O)c2c1 [Example 127, 6-(4-Fluoro-2-methylphenyl)-8-hydroxyquinazolin-4(3H)-one]",20
13,"O=c1[nH]cnc2c(O)cc(-c3ccccc3)cc12 [Example 128, 8-Hydroxy-6-phenylquinazolin-4(3H)-one]",20
14,"Cc1cc(-c2cc(O)c3nc[nH]c(=O)c3c2)ccn1 [Example 134, 8-Hydroxy-6-(2-methylpyridin-4-yl)quinazolin-4(3H)-one]",10
15,"Cc1c(Br)cc2c(=O)[nH]cnc2c1O [Example 136, 6-Bromo-8-hydroxy-7-methylquinazolin-4(3H)-one]",3210
16,"O=c1[nH]cnc2c(O)cc(I)cc12 [Example 137, 8-Hydroxy-6-iodo-3H-quinazolin-4-one]",60
17,"Cc1ncccc1-c1cc(O)c2nc[nH]c(=O)c2c1 [Example 138, 8-hydroxy-6-(2-methylpyridin-3-yl)quinazolin-4(3H)-one]",20
18,"O=c1[nH]cnc2c(O)cc(Cl)cc12 [Example 139, 6-Chloro-8-hydroxyquinazolin-4(3H)-one]",290

row,SMILES,IC50 [nM]
1,"Cc1ccc(O)c2nc[nH]c(=O)c12 [Example 140, 8-Hydroxy-5-methylquinazolin-4(3H)-one]",5040
2,"O=c1[nH]cnc2c(O)ccc(Cl)c12 [Example 143, 5-Chloro-8-hydroxyquinazolin-4(3H)-one]",810
3,"O=c1[nH]cnc2c(O)cc(-c3ccc(Br)nc3)cc12 [Example 144, 6-(6-Bromo-pyridin-3-yl)-8-hydroxy-3H-quinazolin-4-one]",50
4,"O=c1[nH]cnc2c(O)cc(-c3ccccc3OC(F)(F)F)cc12 [Example 145, 8-Hydroxy-6-(2-trifluoromethoxy-phenyl)-3H-quinazolin-4-one]",70
5,"CN(C)c1ccc(-c2cc(O)c3nc[nH]c(=O)c3c2)cc1 [Example 147, 6-(4-Dimethylamino-phenyl)-8-hydroxy-3H-quinazolin-4-one]",20
6,"CN(C)c1cccc(-c2cc(O)c3nc[nH]c(=O)c3c2)c1 [Example 148, 6-(3-Dimethylamino-phenyl)-8-hydroxy-3H-quinazolin-4-one]",10
7,"O=c1[nH]cnc2c(O)ccc(-c3ccc(F)cc3)c12 [Example 151, 5-(4-Fluorophenyl)-8-hydroxyquinazolin-4(3H)-one]",160
8,"O=c1[nH]cnc2c(O)cc(-c3cnn(-c4ccc(F)cc4)c3)cc12 [Example 152, 6-[1-(4-Fluoro-phenyl)-1H-pyrazol-4-yl]-8-hydroxy-3H-quinazolin-4-one]",70
9,"O=c1[nH]cnc2c(O)cc(-c3cncnc3)cc12 [Example 153, 8-Hydroxy-6-(pyrimidin-5-yl)quinazolin-4(3H)-one 2,2,2-trifluoroacetate]",190
10,"Cn1nc(C(F)(F)F)cc1-c1cc(O)c2nc[nH]c(=O)c2c1 [Example 154, 8-Hydroxy-6-(2-methyl-5-trifluoromethyl-2H-pyrazol-3-yl)-3H-quinazolin-4-one]",20
11,"Cn1ncc2c(-c3cc(O)c4nc[nH]c(=O)c4c3)cccc21 [Example 156, 8-Hydroxy-6-(1-methyl-1H-indazol-4-yl)quinazolin-4(3H)-one]",10
12,"CC(=O)Nc1ccccc1-c1cc(O)c2nc[nH]c(=O)c2c1 [Example 159, N-(2-(8-Hydroxy-4-oxo-3,4-dihydroquinazolin-6-yl)phenyl)acetamide]",550
13,"COc1ncc(-c2cc(O)c3nc[nH]c(=O)c3c2)c(OC)n1 [Example 160, 6-(2,4-Dimethoxypyrimidin-5-yl)-8-hydroxyquinazolin-4(3H)-one]",80
14,"COc1ccccc1-c1cc(O)c2nc[nH]c(=O)c2c1 [Example 161, 8-Hydroxy-6-(2-methoxyphenyl)quinazolin-4(3H)-one]",50
15,"COc1ncccc1-c1cc(O)c2nc[nH]c(=O)c2c1 [Example 162, 8-Hydroxy-6-(2-methoxypyridin-3-yl)quinazolin-4(3H)-one]",30
16,"COc1ccc(-c2cc(O)c3nc[nH]c(=O)c3c2)cn1 [Example 163, 8-Hydroxy-6-(6-methoxypyridin-3-yl)quinazolin-4(3H)-one]",40
17,"Cc1cscc1-c1cc(O)c2nc[nH]c(=O)c2c1 [Example 164, 8-Hydroxy-6-(4-methylthiophen-3-yl)quinazolin-4(3H)-one]",20

# Same assay, conditions: IC50, COMT-fluorescence assay, rec. human COMT 25 nM, 4-Nitrocatechol-Alexa488 200 nM, SAM 500 nM
row,SMILES,IC50 [nM]
1,"O=c1[nH]cnc2c(O)cc(-c3ccc(O)cc3)cc12 [Example 129, 8-Hydroxy-6-(4-hydroxyphenyl)quinazolin-4(3H)-one]",30
2,"Cc1ccc(-c2cc(O)c3nc[nH]c(=O)c3c2)cc1 [Example 130, 8-Hydroxy-6-p-tolylquinazolin-4(3H)-one]",30
3,"O=c1[nH]cnc2c(O)cc(-c3ccc(Cl)cc3)cc12 [Example 131, 6-(4-Chlorophenyl)-8-hydroxyquinazolin-4(3H)-one]",40
4,"O=c1[nH]cnc2c(O)cc(-c3ccccc3Cl)cc12 [Example 132, 6-(2-Chlorophenyl)-8-hydroxyquinazolin-4(3H)-one]",20
5,"O=c1[nH]cnc2c(O)cc(-c3ccc(F)cc3F)cc12 [Example 133, 6-(2,4-Difluorophenyl)-8-hydroxyquinazolin-4(3H)-one]",20
6,"COc1ccc(-c2cc(O)c3nc[nH]c(=O)c3c2)cc1 [Example 135, 8-Hydroxy-6-(4-methoxy-phenyl)-3H-quinazolin-4-one]",10
7,"O=c1[nH]cnc2c(O)cc(-c3ccc(-n4cccn4)cc3)cc12 [Example 141, 8-Hydroxy-6-(4-pyrazol-1-yl-phenyl)-3H-quinazolin-4-one]",10
8,"O=c1[nH]cnc2c(O)cc(-c3ccc(N4CCOCC4)cc3)cc12 [Example 142, 8-Hydroxy-6-(4-morpholin-4-yl-phenyl)-3H-quinazolin-4-one]",10
9,"O=c1[nH]cnc2c(O)cc(-c3cccc(N4CCOCC4)c3)cc12 [Example 146, 8-Hydroxy-6-(3-morpholinophenyl)quinazolin-4(3H)-one]",20
10,"O=c1[nH]cnc2c(O)cc(-c3cccc(Cl)c3)cc12 [Example 149, 6-(3-Chloro-phenyl)-8-hydroxy-3H-quinazolin-4-one]",10
11,"CN(C)Cc1ccccc1-c1cc(O)c2nc[nH]c(=O)c2c1 [Example 155, 6-(2-((Dimethylamino)methyl)phenyl)-8-hydroxyquinazolin-4(3H)-one]",1380
12,"CS(=O)(=O)c1cccc(-c2cc(O)c3nc[nH]c(=O)c3c2)c1 [Example 157, 8-Hydroxy-6-(3-(methylsulfonyl)phenyl)quinazolin-4(3H)-one]",20
13,"CS(=O)(=O)c1ccc(-c2cc(O)c3nc[nH]c(=O)c3c2)c(F)c1 [Example 158, 6-(2-Fluoro-4-(methylsulfonyl)phenyl)-8-hydroxyquinazolin-4(3H)-one]",30

# Reference: patent publication US9656971B2, “COMT inhibitors” (Hoffmann-La Roche Inc., priority 2012, dated 2017)
